The subject of assay [1] is MDA-MB-231. Nature of the assay: Cytotoxicity against human MDA-MB-231 cells assessed as apoptotic nuclei at 2 uM by DAPI staining based fluorescence microscopic analysis (reference value: 4.17 to 14.29%). Format: functional.
For assay [2], the system named is MDA-MB-231. Nature of the assay: Cell cycle arrest in human MDA-MB-231 cells assessed as accumulation at G2/M phase at IC50 measured after 48 hrs by propidium iodide staining based FACS analysis (reference value: 30.8+/-1.6 %). Format: functional. In general terms: Flow cytometry measures light scatter and fluorescence of single cells or particles in a stream.
In assay [3] the test system is MDA-MB-231. Description: Cytotoxicity against human MDA-MB-231 cells assessed as normal nuclei at 1.5 uM by DAPI staining based fluorescence microscopic analysis (reference value: 85.71 to 88.89%). Format: functional.
Assay [4] relates to MDA-MB-231. Description: Cytotoxicity against human MDA-MB-231 cells assessed as reduction in cell viability incubated for 48 hrs by MTT assay. Format: functional, cell-based. The note with it: Homo sapiens, MDA-MB-231, 48 h; read-out: IC50. On the technique in general: Tetrazolium assays rely on reduction of a dye to a coloured formazan, in cell work by metabolically active cells.

The subject of assay [5] is MDA-MB-231. Nature of the assay: Cytotoxicity against human MDA-MB-231 cells assessed as normal nuclei at 2 uM by DAPI staining based fluorescence microscopic analysis (reference value: 85.71 to 95.83%). Format: functional.
Assay [6] deals with MDA-MB-231. Description: Induction of apoptosis in human MDA-MB-231 cells assessed as upregulation of Bax level by measuring fold change in Bax expression by Western blot analysis relative to control. The assay is classed as functional. On the technique in general: A western blot detects proteins with antibodies after separation by electrophoresis.
The subject of assay [7] is MDA-MB-231. Nature of the assay: Cell cycle arrest in human MDA-MB-231 cells assessed as accumulation at sub G1 phase at IC50 measured after 48 hrs by propidium iodide staining based FACS analysis (reference value: 0.7+/-0.2 %). Format: functional.
In assay [8] the test system is MDA-MB-231. Description: Cytotoxicity against human MDA-MB-231 cells assessed as reduction in cell survival by clonogenic assay. The assay is classed as functional, cell-based.
Assay [9] can be described thus: Downregulation of CDC6 protein expression in human MDA-MB-231cells assessed as fold change in CDC6 expression at IC50 after 48 hrs by Western blot analysis relative to control. Format: functional.
Assay [10] deals with HEK-293T. Description: Cytotoxicity against human HEK293T cells assessed as reduction in cell viability incubated for 48 hrs by MTT assay. The assay is classed as cell-based.
In assay [11] the test system is MDA-MB-231. Description: Genotoxicity in human MDA-MB-231 cells assessed as induction of DNA damage at 2 uM incubated for 24 hrs by comet assay. Format: functional, cell-based.
The subject of assay [12] is MCF-10A. Description: Cytotoxicity against human MCF-10A cells. Format: cell-based.
For assay [13], the system named is MDA-MB-231. Description: Induction of apoptosis in human MDA-MB-231 cells assessed as viable cells at IC50 by Annexin V/FITC-propidium iodide staining-based flow cytometric method (reference value: 87.2 +/- 0.7 %). Format: functional.
Assay [14] can be described thus: Upregulation of p53 protein expression in human MDA-MB-231cells assessed as fold change in p53 expression at IC50 after 48 hrs by Western blot analysis relative to control. Format: functional.
Assay [15] relates to MDA-MB-231. Nature of the assay: Cytotoxicity against human MDA-MB-231 cells assessed as apoptotic nuclei at 1 uM by DAPI staining based fluorescence microscopic analysis (reference value: 4.17 to 14.29%). Format: functional.
Assay [16] has as its system MDA-MB-231. Nature of the assay: Cell cycle arrest in human MDA-MB-231 cells assessed as accumulation at G1 phase at IC50 measured after 48 hrs by propidium iodide staining based FACS analysis (reference value: 59.3+/-2.9 %). Format: functional.
The nature of assay [17]: Upregulation of cyclinD1 protein expression in human MDA-MB-231cells assessed as fold change in cyclin D1 expression at IC50 after 48 hrs by Western blot analysis relative to control. The assay is classed as functional.
For assay [18], the system named is MDA-MB-231. Nature of the assay: Cytotoxicity against human MDA-MB-231 cells assessed as apoptotic nuclei at 2.5 uM by DAPI staining based fluorescence microscopic analysis (reference value: 11.11 to 14.29%). Format: functional.
Assay [19] relates to MDA-MB-231. Description: Induction of apoptosis in human MDA-MB-231 cells assessed as early apoptotic cells at IC50 by Annexin V/FITC-propidium iodide staining-based flow cytometric method (reference value: 7.1 +/- 0.4 %). Format: functional.
For assay [20], the system named is MCF7. Nature of the assay: Cytotoxicity against human MCF7 cells assessed as reduction in cell viability incubated for 48 hrs by MTT assay. Format: functional, cell-based. Conditions: Homo sapiens, MCF7, 48 h; read-out: IC50.
Assay [21] relates to MDA-MB-231. Description: Cytotoxicity against human MDA-MB-231 cells assessed as apoptotic nuclei at 1.5 uM by DAPI staining based fluorescence microscopic analysis (reference value: 11.11 to 14.29%). The assay is classed as functional.
Assay [22] is described as follows: Downregulation of cyclinB1 protein expression in human MDA-MB-231cells assessed as fold change in cyclin B1 expression at IC50 after 48 hrs by Western blot analysis relative to control. The assay is classed as functional.
In assay [23] the test system is MDA-MB-231. Description: Cell cycle arrest in human MDA-MB-231 cells assessed as accumulation at S phase at IC50 measured after 48 hrs by propidium iodide staining based FACS analysis (reference value: 9.2+/-0.3 %). The assay is classed as functional.
The subject of assay [24] is MDA-MB-231. Description: Induction of apoptosis in human MDA-MB-231cells assessed as downregulation of Bcl-xl level by measuring fold change in Bcl-xl expression by Western blot analysis relative to control. The assay is classed as functional.
The subject of assay [25] is MDA-MB-231. Description: Cytotoxicity against human MDA-MB-231 cells assessed as normal nuclei at 2.5 uM by DAPI staining based fluorescence microscopic analysis (reference value: 85.71 to 88.89%). The assay is classed as functional.
Assay [26] has as its system MDA-MB-231. Nature of the assay: Induction of apoptosis in human MDA-MB-231cells as increase in cleaved PARP1 level by measuring fold change in cleaved PARP1 expression by Western blot analysis relative to control. The assay is classed as functional.
Assay [27] has as its system MDA-MB-231. Nature of the assay: Cytotoxicity against human MDA-MB-231 cells assessed as increase in deformation and shrinkage of nuclei by DAPI staining-based fluorescence microscopic analysis. The assay is classed as functional, cell-based. The note with it: dose 0.5-2.5 µM.
Assay [28] concerns MDA-MB-231. Nature of the assay: Cytotoxicity against human MDA-MB-231 cells assessed as normal nuclei at 1 uM by DAPI staining based fluorescence microscopic analysis (reference value: 85.71 to 95.83%). The assay is classed as functional.
The test system of assay [29] is MDA-MB-231. Nature of the assay: Induction of apoptosis in human MDA-MB-231 cells assessed as necrotic cells at IC50 by Annexin V/FITC-propidium iodide staining-based flow cytometric method (reference value: 4.5 +/- 0.5 %). Format: functional.
Assay [30] deals with MDA-MB-231. Nature of the assay: Cytotoxicity against human MDA-MB-231 cells assessed as apoptotic nuclei at 0.5 uM by DAPI staining based fluorescence microscopic analysis (reference value: 11.11 to 14.29%). Format: functional.
Assay [31] can be described thus: Downregulation of Cdc25A protein expression in human MDA-MB-231cells assessed as fold change in Cdc25A expression at IC50 after 48 hrs by Western blot analysis relative to control. Format: functional.
The nature of assay [32]: Downregulation of NFkappaB protein expression in human MDA-MB-231cells assessed as fold change in NF-kB expression at IC50 after 48 hrs by Western blot analysis relative to control. Format: functional.
Assay [33] relates to MDA-MB-231. Description: Induction of apoptosis in human MDA-MB-231 cells assessed as late apoptotic cells at IC50 by Annexin V/FITC-propidium iodide staining-based flow cytometric method (reference value: 1.2 +/- 0.3 %). The assay is classed as functional.
Assay [34] deals with MDA-MB-231. Nature of the assay: Cytotoxicity against human MDA-MB-231 cells assessed as normal nuclei at 0.5 uM by DAPI staining based fluorescence microscopic analysis (reference value: 85.71 to 88.89%). Format: functional.
The nature of assay [35]: Cytotoxicity against human H357 cells assessed as reduction in cell viability incubated for 48 hrs by MTT assay. Format: functional, cell-based. Conditions: Homo sapiens, H357, 48 h; read-out: IC50.
Assay [36] can be described thus: Upregulation of p21 protein expression in human MDA-MB-231cells assessed as fold change in p21 expression at IC50 after 48 hrs by Western blot analysis relative to control. Format: functional.
The target in assay [37] is DNA topoisomerase 2-alpha (Homo sapiens) (UniProt P11388). Description: Inhibition of human topoisomerase 2alpha assessed as reduction in decatenation of kinetoplast DNA by agarose gel electrophoresis method.
DNA topoisomerase 2-alpha (Homo sapiens), sequence (P11388 whole entry): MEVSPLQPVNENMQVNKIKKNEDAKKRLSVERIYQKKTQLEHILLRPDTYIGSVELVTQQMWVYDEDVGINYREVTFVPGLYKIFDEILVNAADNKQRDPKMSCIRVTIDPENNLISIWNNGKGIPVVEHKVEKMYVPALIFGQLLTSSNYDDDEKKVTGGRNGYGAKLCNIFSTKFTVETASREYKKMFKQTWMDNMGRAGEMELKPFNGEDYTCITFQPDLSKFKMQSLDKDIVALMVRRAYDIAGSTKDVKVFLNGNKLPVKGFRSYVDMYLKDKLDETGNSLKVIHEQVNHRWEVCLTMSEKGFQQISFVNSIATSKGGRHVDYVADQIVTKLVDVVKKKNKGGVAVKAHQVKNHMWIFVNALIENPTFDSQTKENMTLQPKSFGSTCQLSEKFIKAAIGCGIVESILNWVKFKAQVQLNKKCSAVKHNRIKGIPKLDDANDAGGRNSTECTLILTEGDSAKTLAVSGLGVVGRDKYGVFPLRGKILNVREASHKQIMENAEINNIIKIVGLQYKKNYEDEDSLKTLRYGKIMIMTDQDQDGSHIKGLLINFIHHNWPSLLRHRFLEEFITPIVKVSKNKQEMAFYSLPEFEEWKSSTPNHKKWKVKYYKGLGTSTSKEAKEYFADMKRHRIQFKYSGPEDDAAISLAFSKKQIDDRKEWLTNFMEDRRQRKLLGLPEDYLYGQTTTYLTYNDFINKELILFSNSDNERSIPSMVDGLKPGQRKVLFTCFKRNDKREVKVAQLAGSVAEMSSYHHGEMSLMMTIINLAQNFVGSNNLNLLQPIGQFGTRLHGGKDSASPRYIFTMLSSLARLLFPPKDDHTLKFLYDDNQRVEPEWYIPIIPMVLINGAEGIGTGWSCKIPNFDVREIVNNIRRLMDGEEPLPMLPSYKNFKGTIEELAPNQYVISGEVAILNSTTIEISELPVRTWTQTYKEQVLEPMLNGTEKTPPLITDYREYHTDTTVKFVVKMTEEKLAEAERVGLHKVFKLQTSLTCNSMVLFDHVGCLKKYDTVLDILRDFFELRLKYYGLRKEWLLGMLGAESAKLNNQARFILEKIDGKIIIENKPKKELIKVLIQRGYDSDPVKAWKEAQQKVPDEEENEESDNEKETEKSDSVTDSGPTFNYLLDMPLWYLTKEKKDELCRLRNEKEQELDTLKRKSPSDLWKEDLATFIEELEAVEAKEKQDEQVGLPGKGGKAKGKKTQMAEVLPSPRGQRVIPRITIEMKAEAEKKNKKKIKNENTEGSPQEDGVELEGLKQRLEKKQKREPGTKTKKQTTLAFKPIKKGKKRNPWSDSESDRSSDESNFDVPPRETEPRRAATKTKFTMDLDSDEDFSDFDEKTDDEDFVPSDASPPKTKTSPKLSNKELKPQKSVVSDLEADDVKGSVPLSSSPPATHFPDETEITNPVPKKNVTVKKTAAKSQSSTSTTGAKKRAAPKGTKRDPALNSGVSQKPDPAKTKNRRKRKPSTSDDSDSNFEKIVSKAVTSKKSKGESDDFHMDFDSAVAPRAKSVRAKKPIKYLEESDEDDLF

Calls of active or inactive are those of the source. The calls are words filed in the database; no cut-off is given here. Bounds are passed on as bounds.

Consider `CN(C1=CC(=O)c2ccccc2C1=O)c1ccccc1`, for which the Activity was 56.41% in [1]; 24.6% in assay [2]; 69.23% in assay [3]; 43.59% in assay [5]; 7.9% in assay [7]; 52.2% in [13]. Besides, the Activity in assay [15] is listed as 27.78%; in assay [16] it was 40.4%; in assay [18], 78.57%; in [19], 22.3%; in assay [21] it was 30.77%; in assay [23], 27.1%. For the same molecule, the Activity was 21.43% in [25]; “Dose-Dependent Effect” in [27]; 72.22% in assay [28]; 20.7% in [29]; 16.67% in assay [30]; 4.8% in assay [33]. The Activity in assay [34] is given as 83.33%. Besides, the concentration for half-maximal inhibition (IC50) (commonly the midpoint of a concentration-inhibition curve) in assay [4] is 2 µM; in [8] it was 1.2 µM; in assay [10], 3.5 µM; in assay [12] it was 86 µM; in assay [20] it was 1.5 µM; in [35], 2 µM. The “fold change (FC)” value in assay [6] is recorded as 2.5; in assay [9], 0.5; in [14] it was 2.5; in assay [17], 1.5; in assay [22], 0.4; in assay [24], 0.8. Moreover, the “fold change (FC)” value is given as 0.9 in assay [26], 0.3 in assay [31], 0.7 in assay [32] and 2.3 in assay [36]. In addition, in assay [11], the result was Active.

Take `COc1cc([C@@H]2c3cc4c(cc3[C@@H](O[C@@H]3O[C@@H]5CO[C@@H](C)O[C@H]5[C@H](O)[C@H]3O)[C@H]3COC(=O)[C@H]23)OCO4)cc(OC)c1O` [ETOPOSIDE]: the IC50 in [4] was 48 µM; in [8], 42 µM; in [10], 22 µM; in [12], over 120 µM; in [20], 45 µM; in assay [35], 32 µM.

As for `COc1cc2[nH]c3c(c2c(OC)c1OC)C(=O)c1ccccc1C3=O`, the IC50 in [4] was determined as 8.1 µM; in assay [10], 10.5 µM; in assay [20], 8.2 µM; in assay [35] it was 9.4 µM. Besides, the inhibition entry in assay [37] is “Active”.

As to `COc1ccc(NC2=CC(=O)c3ccccc3C2=O)cc1OC`, the IC50 was found to be 6.2 µM in [4], 6.3 µM in [10], 6.4 µM in assay [20] and 6.2 µM in assay [35]. The inhibition result in [37] is “Active”.

Turning to `Cn1c2c(c3ccccc31)C(=O)c1ccccc1C2=O`, the IC50 is 6.5 µM in assay [4], 8.4 µM in assay [10], 5.4 µM in assay [20] and 7.3 µM in assay [35]. Besides, in assay [37], the inhibition result is “Active”.

Regarding `O=C1c2ccccc2C(=O)c2c1[nH]c1cc(Cl)ccc21`, the IC50 in assay [4] was determined as 5.5 µM; in assay [10] it was 7.3 µM; in assay [20] it was 4.4 µM; in assay [35], 6.5 µM. In addition, in [37], the inhibition entry was “Active”.

Turning to `COc1cccc(NC2=CC(=O)c3ccccc3C2=O)c1`, the Activity in assay [1] came out at 54.55%; in assay [2], 23.3%; in assay [3], 51.28%; in assay [5] it was 45.45%; in assay [7], 11.8%; in assay [13], 50.1%. Besides, the Activity in [15] is 36.11%; in assay [16] it was 44.7%; in assay [18] it was 80.95%; in [19] it was 26.1%; in [21], 48.72%; in assay [23], 20.2%. The Activity in [25] was 19.05%; in [27], “Dose-Dependent Effect”; in assay [28] it was 63.89%; in assay [29] it was 18.5%; in assay [30], 17.95%; in assay [33], 5.3%. Also, in [34], the Activity is recorded as 82.05%. The IC50 in [4] amounted to 2.1 µM; in [8], 1.5 µM; in assay [10], 4.5 µM; in assay [12], 90 µM; in [20], 2 µM; in assay [35], 2.1 µM. In addition, the “fold change (FC)” value in assay [6] came to 1.6; in assay [9], 0.4; in assay [14], 2.1; in assay [17], 1.8; in assay [22], 0.3; in assay [24] it was 0.6. In addition, the “fold change (FC)” value in assay [26] stood at 0.3; in [31], 0.4; in [32], 0.7; in [36], 2.1. Besides, in assay [11], the outcome was Active.
